Measured values: patent US6770673B1, “Therapeutic uses of arglabin in combination with other chemotherapy agents” (priority 1997, dated 2004)

Key:
[1] = tested on: Pliss lymphosarcoma; experiment: Inhibition of tumor growth in implanted tumors; format: in vivo, rats
[2] = tested on: Worker's carcinosarcoma; experiment: Inhibition of tumor growth in implanted tumors; format: in vivo, mice and rats
[3] = tested on: Geren's carcinosarcoma; experiment: Inhibition of tumor growth in implanted tumors; format: in vivo, mice and rats
[4] = tested on: Sarcoma-45; experiment: Inhibition of tumor growth in implanted tumors; format: in vivo, rats
[5] = tested on: M-1 Sarcoma; experiment: Inhibition of tumor growth in implanted tumors; format: in vivo, mice and rats
[6] = tested on: Alveolar Cancer of the liver; experiment: Inhibition of tumor growth in implanted tumors; format: in vivo, mice and rats
[7] = tested on: Leucemia P-388; experiment: Implanted leukemia, inhibition / survival; format: in vivo, mice and rats
[8] = tested on: PC-1; experiment: Inhibition of tumor growth in implanted tumors; format: in vivo, mice and rats; settings: dose 30 mg/kg
[9] = tested on: Sarcoma-45 resistant to 5-fluorouracil; experiment: Inhibition of growth of resistant tumour strains; format: in vivo, rats
[10] = tested on: Pliss Lymphosarcoma resistant to prospidine; experiment: Inhibition of growth of resistant tumour strains; duration of life and metastasis; format: in vivo, rats
[11] = tested on: Breast Cancer RMC-1; experiment: Inhibition of tumor growth in implanted tumors; format: in vivo, mice and rats; settings: dose 30 mg/kg
[12] = tested on: Sarcoma-45 resistant to prospidine; experiment: Inhibition of growth of resistant tumour strains; format: in vivo, rats; settings: dose 30 mg/kg
[13] = tested on: Sarcoma-45 resistant to rubidomycin; experiment: Inhibition of growth of resistant tumour strains; format: in vivo, rats; settings: dose 30 mg/kg
[14] = tested on: Pliss Lymphosarcoma resistant to rubidomycin; experiment: Inhibition of growth of resistant tumour strains; format: in vivo, rats; settings: dose 30 mg/kg
[15] = tested on: Pliss Lymphosarcoma resistant to leucoeffdine; experiment: Inhibition of growth of resistant tumour strains; tumor disappearance; format: in vivo, rats; settings: dose 30 mg/kg
[16] = tested on: Sarcoma-37; experiment: Inhibition of tumor growth in implanted tumors; format: in vivo, mice and rats; settings: dose 2 mg/kg

SMILES	Inhibition of Tumour Growth, % - Pliss lymphosarcoma ([1]; dose 30 mg/kg)	Inhibition of Tumour Growth, % - Pliss lymphosarcoma ([1]; dose 50 mg/kg)	Inhibition of Tumour Growth, % - Worker's carcinosarcoma ([2]; dose 30 mg/kg)	Inhibition of Tumour Growth, % - Worker's carcinosarcoma ([2]; dose 50 mg/kg)	Inhibition of Tumour Growth, % - Geren's carcinosarcoma ([3]; dose 50 mg/kg)	Inhibition of Tumour Growth, % - Sarcoma-45 ([4]; dose 30 mg/kg)	Inhibition of Tumour Growth, % - Sarcoma-45 ([4]; dose 50 mg/kg)	Inhibition of Tumour Growth, % - M-1 Sarcoma ([5]; dose 30 mg/kg)	Inhibition of Tumour Growth, % - Alveolar Cancer of the liver ([6]; dose 50 mg/kg)	Inhibition of Tumour Growth, % - Leucemia P-388 PALT ([7]; dose 50 mg/kg)	Inhibition of Tumour Strains Growth, % - Resistant Forms - Sarcoma-45 to 5-fluorouracil ([9]; dose 50 mg/kg)	Inhibition of Tumour Growth, % - Alveolar Cancer of the liver ([6]; dose 30 mg/kg)	further results
CC1=CCC23OC2(C)CCC2C(CN(C)C)C(=O)OC2C13 (stereo not shown) [Dimethylaminoarglabin (14b), dimethylaminoarglabin]	78.2%	56.0%	30.0%	30.0%	85.1%	85.1%	79.0%	79.9%	42.0%	80.1%	52.1%	–	Inhibition of Tumour Growth, % - PC-1 [8]: 62.1%; Inhibition of Tumour Strains Growth, % - Resistant Forms - Pliss Lymphosarcoma to prospidine ([10]; dose 30 mg/kg): 52.1%
C=C1C(=O)OC2C1CCC1(C)OC13CC1OC1(C)C23 (stereo not shown) [Epoxyarglabin (2), 1(10), 3(4)-diepoxy-guai-11(13)-en-6,12-olid]	72.1%	–	36.4%	–	–	88.8%	–	78.4%	–	–	–	70.4%	Inhibition of Tumour Growth, % - Breast Cancer RMC-1 [11]: 59.6%; Inhibition of Tumour Strains Growth, % - Resistant Forms - Sarcoma-45 to 5-fluorouracil ([9]; dose 30 mg/kg): 66.0%; Inhibition of Tumour Strains Growth, % - Resistant Forms - Sarcoma-45 to prospidine [12]: 70.4%; Inhibition of Tumour Strains Growth, % - Resistant Forms - Sarcoma-45 to rubidomycin [13]: 78.6%; Inhibition of Tumour Strains Growth, % - Resistant Forms - Pliss Lymphosarcoma to rubidomycin [14]: 78.0%; Inhibition of Tumour Strains Growth, % - Resistant Forms - Pliss Lymphosarcoma to leucoeffdine [15]: 79.8%
C=C1C(=O)OC2C1CCC(C)(O)C1C3OC3C(C)(O)C21 (stereo not drawn) [Anobin (19), 2α,3α-epoxy-4α,10α-dioxy-5,7α(H), 60β(H)-guai-11(13)-en-6,12-olide]	–	–	–	–	–	–	–	–	–	–	–	–	Inhibition of Tumour Growth, % - Pliss lymphosarcoma ([1]; dose 20-30 mg/kg): 60.0%; Inhibition of Tumour Growth, % - Geren's carcinosarcoma ([3]; dose 20-30 mg/kg): 85%; Inhibition of Tumour Strains Growth, % - Resistant Forms - Sarcoma-45 to 5-fluorouracil ([9]; dose 20-30 mg/kg): 13.2%; Inhibition of Tumour Strains Growth, % - Resistant Forms - Pliss Lymphosarcoma to prospidine ([10]; dose 20-30 mg/kg): 95%
COc1cc2c(c(OC)c1OC)-c1ccc(OC)c(=O)cc1[C@@H](NC(C)=O)CC2 [Colchicine, colchicine, reference compound]	–	–	–	–	–	–	–	–	–	–	–	–	Inhibition of Tumour Growth, % - Pliss lymphosarcoma ([1]; dose 2 mg/kg): 54.4%; Inhibition of Tumour Growth, % - Worker's carcinosarcoma ([2]; dose 2 mg/kg): 30.1%; Inhibition of Tumour Growth, % - Geren's carcinosarcoma ([3]; dose 2 mg/kg): 32.4%; Inhibition of Tumour Growth, % - Sarcoma-45 ([4]; dose 2 mg/kg): 23.4%; Inhibition of Tumour Growth, % - Sarcoma-37 [16]: 36.7%; Inhibition of Tumour Growth, % - M-1 Sarcoma ([5]; dose 2 mg/kg): 14.9%; Inhibition of Tumour Growth, % - Alveolar Cancer of the liver ([6]; dose 2 mg/kg): 29.1%; Inhibition of Tumour Growth, % - Leucemia P-388 PALT ([7]; dose 2 mg/kg): 31.2%
C=C1C(=O)OC2C1CCC1(C)OC13CC(Br)C(C)(Br)C23 (stereo not shown) [Dibromoarglabin (5), 3,4 Dibromoarglabin]	–	51.0%	–	17.1%	90.0%	–	74.2%	–	69.0%	46.9%	46.3%	–	–
CC1=CCC23OC2(C)CCC2C(C)C(=O)OC2C13 (stereo not shown) [11,13-dihydroarglabin (16), 11,13 dihydroarglabin]	68.0%	–	46.4%	–	–	64.1%	–	65.5%	–	–	–	68.7%	Inhibition of Tumour Growth, % - Geren's carcinosarcoma ([3]; dose 30 mg/kg): 84.4%
